The source of these data is article PMC4774911, “Biochemical Screening of Five Protein Kinases from Plasmodium falciparum against 14,000 Cell-Active Compounds” (PLoS ONE, 2016).

SMILES strings stand for the structures. Where “and” joins values, the source holds several entries; their conditions need not be identical. Identical values can stand only once.

Among the targets are CDK6 (Homo sapiens, UniProt Q00534); BMP2K (Homo sapiens, UniProt Q9NSY1); MAPK8 (Homo sapiens, UniProt P45983); CDK10 (Homo sapiens, UniProt Q15131).
Test in all cases: biochemical
Holding throughout (design): endogenous in cells; host or cells: K562 cell extract; species or system K562 (extract); replicate k of n = 2 (each experiment ID is one independent experiment; two experiment IDs per compound)
Holding throughout (conditions): read-out: KDapp

Another experiment deals with T1, TAOK2 (Homo sapiens, UniProt Q9UL54).
T1 sequence (Q9UL54 1-1235): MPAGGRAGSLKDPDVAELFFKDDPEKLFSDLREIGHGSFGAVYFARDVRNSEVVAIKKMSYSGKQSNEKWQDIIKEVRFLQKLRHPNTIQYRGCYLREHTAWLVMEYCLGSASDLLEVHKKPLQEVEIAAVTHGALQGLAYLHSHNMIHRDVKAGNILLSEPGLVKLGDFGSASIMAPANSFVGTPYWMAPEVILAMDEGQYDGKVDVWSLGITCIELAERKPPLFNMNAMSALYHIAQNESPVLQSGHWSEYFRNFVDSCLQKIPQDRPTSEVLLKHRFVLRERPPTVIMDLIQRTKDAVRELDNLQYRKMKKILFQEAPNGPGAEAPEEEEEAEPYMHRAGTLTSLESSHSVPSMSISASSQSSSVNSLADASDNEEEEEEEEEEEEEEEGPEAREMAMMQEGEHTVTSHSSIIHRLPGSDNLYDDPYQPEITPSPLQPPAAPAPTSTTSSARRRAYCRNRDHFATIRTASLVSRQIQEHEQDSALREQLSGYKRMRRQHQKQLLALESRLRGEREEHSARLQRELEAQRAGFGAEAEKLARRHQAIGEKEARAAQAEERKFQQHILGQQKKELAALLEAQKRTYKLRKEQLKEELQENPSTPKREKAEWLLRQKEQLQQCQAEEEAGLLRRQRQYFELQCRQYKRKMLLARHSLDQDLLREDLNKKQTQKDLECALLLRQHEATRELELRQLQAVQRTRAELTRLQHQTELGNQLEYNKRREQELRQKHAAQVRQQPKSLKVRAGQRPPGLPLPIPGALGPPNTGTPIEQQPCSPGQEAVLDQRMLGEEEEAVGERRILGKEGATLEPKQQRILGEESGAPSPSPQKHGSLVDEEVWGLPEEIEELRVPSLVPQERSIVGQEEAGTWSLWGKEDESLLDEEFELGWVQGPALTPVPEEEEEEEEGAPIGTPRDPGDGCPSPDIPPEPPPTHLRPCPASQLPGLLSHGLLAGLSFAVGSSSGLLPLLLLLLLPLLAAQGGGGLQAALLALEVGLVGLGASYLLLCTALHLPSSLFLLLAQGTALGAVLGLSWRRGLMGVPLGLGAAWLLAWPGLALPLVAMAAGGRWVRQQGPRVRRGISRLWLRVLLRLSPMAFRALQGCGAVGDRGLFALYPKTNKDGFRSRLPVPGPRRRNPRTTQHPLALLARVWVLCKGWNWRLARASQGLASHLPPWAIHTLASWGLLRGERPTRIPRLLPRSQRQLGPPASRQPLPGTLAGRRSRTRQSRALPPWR

A further experiment concerns the target T2, CHEK1 (Homo sapiens, UniProt O14757).
T2 sequence (O14757 1-476): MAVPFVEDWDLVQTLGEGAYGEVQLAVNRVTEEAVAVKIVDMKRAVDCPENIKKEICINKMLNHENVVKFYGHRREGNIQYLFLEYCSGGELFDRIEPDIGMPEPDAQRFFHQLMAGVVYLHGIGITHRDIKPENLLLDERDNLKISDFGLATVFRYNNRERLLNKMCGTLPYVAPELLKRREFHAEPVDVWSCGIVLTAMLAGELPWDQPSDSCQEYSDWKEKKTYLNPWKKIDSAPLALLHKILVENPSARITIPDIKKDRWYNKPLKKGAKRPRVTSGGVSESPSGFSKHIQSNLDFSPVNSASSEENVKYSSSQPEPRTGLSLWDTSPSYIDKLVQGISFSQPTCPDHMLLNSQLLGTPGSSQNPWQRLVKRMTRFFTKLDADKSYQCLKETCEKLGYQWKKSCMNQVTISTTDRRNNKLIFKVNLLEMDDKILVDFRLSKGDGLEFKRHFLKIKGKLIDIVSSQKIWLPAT

Chain of BMP2K (Q9NSY1 whole entry): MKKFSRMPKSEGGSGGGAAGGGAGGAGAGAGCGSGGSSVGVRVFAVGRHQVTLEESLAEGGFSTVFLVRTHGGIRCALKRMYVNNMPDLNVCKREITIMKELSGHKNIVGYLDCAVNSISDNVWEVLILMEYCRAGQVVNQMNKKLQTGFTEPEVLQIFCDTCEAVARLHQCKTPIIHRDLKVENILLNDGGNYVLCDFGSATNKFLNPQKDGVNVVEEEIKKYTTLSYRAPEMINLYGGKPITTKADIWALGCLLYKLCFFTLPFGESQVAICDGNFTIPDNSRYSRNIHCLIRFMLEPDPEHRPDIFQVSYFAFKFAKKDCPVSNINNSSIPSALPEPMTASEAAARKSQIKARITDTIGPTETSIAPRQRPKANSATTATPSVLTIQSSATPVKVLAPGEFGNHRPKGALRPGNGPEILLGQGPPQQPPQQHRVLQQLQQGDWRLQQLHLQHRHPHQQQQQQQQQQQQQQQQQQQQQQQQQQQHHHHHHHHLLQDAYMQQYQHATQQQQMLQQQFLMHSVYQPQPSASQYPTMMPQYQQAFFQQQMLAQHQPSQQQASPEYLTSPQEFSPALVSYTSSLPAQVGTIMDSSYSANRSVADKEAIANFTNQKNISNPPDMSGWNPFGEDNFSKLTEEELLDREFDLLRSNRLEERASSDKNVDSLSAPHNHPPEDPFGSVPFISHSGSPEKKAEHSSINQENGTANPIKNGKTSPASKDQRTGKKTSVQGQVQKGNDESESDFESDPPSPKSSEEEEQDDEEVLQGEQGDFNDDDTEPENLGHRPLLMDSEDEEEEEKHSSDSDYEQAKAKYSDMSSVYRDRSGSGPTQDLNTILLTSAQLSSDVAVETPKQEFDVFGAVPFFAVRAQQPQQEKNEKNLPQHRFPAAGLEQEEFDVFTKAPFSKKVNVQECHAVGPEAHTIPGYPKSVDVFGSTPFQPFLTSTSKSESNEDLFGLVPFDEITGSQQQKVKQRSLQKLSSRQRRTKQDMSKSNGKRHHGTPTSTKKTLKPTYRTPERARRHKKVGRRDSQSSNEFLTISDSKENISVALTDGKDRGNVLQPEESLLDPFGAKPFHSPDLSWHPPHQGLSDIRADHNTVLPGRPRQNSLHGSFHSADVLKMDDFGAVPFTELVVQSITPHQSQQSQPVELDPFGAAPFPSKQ
Chain of CDK6 (Q00534 whole entry): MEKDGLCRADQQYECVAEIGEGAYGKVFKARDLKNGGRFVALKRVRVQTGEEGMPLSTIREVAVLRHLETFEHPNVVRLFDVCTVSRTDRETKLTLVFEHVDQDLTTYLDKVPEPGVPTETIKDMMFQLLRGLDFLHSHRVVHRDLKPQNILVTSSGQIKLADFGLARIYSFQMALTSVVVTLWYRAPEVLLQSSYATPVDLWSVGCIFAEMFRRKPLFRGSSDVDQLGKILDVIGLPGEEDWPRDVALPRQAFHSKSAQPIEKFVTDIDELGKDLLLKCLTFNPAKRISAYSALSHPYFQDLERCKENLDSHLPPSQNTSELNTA
Chain of MAPK8 (P45983 whole entry): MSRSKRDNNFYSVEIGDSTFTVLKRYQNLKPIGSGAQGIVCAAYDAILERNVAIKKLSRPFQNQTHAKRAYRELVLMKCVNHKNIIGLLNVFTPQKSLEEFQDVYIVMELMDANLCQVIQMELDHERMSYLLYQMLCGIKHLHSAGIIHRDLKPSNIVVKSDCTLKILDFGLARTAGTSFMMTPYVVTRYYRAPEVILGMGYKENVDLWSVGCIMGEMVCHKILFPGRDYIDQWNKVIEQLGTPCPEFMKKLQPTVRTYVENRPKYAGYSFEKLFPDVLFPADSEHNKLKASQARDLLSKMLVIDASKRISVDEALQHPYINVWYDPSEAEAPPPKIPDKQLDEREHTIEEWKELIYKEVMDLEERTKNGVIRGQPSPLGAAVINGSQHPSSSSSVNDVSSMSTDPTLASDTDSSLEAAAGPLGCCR
Chain of CDK10 (Q15131 whole entry): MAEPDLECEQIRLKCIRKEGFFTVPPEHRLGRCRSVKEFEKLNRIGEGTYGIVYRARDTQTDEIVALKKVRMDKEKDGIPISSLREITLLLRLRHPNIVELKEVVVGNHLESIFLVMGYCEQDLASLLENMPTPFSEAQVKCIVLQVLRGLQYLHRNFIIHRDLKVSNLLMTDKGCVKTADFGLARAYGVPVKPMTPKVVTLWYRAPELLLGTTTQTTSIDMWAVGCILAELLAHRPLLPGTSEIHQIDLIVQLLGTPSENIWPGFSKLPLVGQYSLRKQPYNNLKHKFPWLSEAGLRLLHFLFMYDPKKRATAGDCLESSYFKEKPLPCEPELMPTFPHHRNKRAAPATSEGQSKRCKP

As to `CN1CCN(c2ccc(Nc3ncc(C#N)c(Nc4ccccc4C(N)=O)n3)cc2)CC1.Cl` [TCMDC-134116], the Kd on CDK6 is 133 nM and 150 nM; on BMP2K, 112 nM and 92.8 nM; on TAOK2, 274 nM; on CHEK1 it was 92 nM; at MAPK8 it was 363 nM and 1230 nM.
Regarding `CN(C)CC(O)COc1ccc(Nc2ncc([N+](=O)[O-])c(Nc3ccccc3O)n2)cc1.O=C(O)C(F)(F)F` (stereo not drawn) [TCMDC-141399], the Kd on CDK10 is 630 nM.
